What all share (format): biochemical
One assay deals with off-target. Put plainly: FKBP51 AlphaScreen, Target #2. The method, then:
(§1) Metal salt solutions for the metal ion interference set (MIIS) were prepared as 10 mM stock solutions in DMSO (see Table 3). All metal salts used have been purchased at highest industrial grade.
On the technique in general: Alpha assays give light when donor and acceptor beads are brought close together.

Another assay concerns the target T1, SOS1 (Homo sapiens, UniProt Q07889).
T1 sequence (Q07889 1-1333): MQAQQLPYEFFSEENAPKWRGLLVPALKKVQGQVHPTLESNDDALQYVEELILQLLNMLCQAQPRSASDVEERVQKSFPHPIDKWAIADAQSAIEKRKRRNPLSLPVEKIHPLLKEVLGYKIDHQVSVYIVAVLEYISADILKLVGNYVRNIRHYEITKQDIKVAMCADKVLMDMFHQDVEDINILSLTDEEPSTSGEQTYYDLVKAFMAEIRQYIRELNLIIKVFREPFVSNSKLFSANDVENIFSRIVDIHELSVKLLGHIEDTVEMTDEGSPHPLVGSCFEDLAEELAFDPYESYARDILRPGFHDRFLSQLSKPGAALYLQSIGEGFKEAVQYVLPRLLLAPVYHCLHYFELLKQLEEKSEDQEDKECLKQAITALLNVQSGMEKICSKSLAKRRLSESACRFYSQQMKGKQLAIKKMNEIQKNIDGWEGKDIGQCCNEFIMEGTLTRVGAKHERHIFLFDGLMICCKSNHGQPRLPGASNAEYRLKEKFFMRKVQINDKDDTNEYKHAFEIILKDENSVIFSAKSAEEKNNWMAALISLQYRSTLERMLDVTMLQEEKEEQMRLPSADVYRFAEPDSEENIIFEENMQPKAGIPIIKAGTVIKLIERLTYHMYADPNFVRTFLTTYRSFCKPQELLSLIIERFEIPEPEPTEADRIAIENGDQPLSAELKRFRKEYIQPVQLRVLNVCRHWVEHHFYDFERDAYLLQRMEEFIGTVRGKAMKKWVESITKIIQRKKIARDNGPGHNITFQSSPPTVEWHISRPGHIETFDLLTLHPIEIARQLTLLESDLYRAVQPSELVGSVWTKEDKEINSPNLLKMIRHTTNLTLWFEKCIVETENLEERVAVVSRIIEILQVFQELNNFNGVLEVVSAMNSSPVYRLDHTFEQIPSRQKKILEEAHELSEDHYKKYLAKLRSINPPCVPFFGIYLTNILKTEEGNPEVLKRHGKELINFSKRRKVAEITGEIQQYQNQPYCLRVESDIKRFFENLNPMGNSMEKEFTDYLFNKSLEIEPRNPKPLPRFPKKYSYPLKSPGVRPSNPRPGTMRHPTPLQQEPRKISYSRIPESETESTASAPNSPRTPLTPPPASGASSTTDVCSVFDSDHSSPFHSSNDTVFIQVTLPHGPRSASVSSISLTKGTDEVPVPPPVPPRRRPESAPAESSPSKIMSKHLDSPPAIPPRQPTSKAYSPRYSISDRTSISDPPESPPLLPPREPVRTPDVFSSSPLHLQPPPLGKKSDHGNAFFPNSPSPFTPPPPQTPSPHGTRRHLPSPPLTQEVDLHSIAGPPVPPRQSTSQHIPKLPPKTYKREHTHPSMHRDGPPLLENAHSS
The experiment in a line: SOS1 AlphaScreen, Target #1. The method, then: as §1

A further assay has as its target WRN (int.) (Homo sapiens, UniProt Q14191). The experiment in a line: WRN ADP-Glo, Target #1. The method, then: as §1
(In general: ADP-Glo turns the ADP formed in a reaction into a luminescent signal.)

The next assay relates to off-target (int.). Put plainly: WRN ADP-Glo, Target #3. The method, then: as §1
The target in the next assay is BCL6 (Homo sapiens, UniProt P41182). Put plainly: BCL6 Fluorescence Polarization. Particulars: read-out: Target #1 IC50. The method, then:
as §1

In another assay the target is T2, NSD3 (Homo sapiens, UniProt Q9BZ95).
T2 sequence (Q9BZ95 1-1437): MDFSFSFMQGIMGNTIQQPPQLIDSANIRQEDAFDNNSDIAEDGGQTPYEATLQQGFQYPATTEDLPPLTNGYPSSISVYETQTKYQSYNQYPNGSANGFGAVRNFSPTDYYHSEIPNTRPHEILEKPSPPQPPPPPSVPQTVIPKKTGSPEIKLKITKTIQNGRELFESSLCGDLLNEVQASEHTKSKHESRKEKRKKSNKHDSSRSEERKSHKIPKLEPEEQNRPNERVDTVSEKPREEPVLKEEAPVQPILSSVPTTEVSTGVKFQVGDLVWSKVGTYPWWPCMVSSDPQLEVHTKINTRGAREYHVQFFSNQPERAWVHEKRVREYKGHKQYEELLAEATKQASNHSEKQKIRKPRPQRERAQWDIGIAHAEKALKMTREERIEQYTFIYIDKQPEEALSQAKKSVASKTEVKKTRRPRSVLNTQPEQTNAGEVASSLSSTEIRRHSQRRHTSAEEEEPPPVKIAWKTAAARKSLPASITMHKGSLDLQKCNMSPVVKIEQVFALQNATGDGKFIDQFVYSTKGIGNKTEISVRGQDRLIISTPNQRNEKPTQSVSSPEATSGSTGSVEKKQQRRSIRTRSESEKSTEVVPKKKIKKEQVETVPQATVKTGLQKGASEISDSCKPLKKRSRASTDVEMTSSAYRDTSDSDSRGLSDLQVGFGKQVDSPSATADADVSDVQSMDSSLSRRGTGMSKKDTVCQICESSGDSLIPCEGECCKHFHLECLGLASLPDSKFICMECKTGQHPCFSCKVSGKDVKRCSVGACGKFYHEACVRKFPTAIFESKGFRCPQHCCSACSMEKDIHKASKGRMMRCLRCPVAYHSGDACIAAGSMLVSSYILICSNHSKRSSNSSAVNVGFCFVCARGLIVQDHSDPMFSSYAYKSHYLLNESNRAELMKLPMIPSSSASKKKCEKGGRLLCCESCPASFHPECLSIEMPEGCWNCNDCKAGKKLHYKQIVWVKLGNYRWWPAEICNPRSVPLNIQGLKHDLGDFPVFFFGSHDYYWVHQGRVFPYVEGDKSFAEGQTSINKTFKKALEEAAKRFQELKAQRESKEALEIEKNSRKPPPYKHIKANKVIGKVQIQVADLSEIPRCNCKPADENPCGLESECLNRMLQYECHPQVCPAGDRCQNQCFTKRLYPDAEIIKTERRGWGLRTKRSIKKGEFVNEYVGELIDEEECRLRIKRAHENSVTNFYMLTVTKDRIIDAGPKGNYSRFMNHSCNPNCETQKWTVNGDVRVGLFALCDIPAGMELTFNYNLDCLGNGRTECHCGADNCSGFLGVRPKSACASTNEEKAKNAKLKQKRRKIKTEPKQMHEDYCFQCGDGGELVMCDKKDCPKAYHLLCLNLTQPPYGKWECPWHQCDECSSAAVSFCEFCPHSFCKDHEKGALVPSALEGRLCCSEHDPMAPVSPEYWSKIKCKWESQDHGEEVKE
The experiment in a line: NSD3 TR-FRET. Particulars: read-out: Target #1 IC50. The method, then: as §1
In general terms: In TR-FRET formats the signal depends on donor and acceptor labels being close together.

For a further assay, the target named is KRAS (Homo sapiens, UniProt P01116). Put plainly: KRAS TR-FRET (MIIS list). To be noted: read-out: Target #1 IC50. The method, then: as §1

This is an account of results in publication PMC11285368, “Chasing Red Herrings: Palladium Metal Salt Impurities Feigning KRAS Activity in Biochemical Assays” (Journal of Medicinal Chemistry, 2024).

Some results are limits rather than exact numbers.

Chain of WRN (int.) (Q14191 whole entry, species assumed): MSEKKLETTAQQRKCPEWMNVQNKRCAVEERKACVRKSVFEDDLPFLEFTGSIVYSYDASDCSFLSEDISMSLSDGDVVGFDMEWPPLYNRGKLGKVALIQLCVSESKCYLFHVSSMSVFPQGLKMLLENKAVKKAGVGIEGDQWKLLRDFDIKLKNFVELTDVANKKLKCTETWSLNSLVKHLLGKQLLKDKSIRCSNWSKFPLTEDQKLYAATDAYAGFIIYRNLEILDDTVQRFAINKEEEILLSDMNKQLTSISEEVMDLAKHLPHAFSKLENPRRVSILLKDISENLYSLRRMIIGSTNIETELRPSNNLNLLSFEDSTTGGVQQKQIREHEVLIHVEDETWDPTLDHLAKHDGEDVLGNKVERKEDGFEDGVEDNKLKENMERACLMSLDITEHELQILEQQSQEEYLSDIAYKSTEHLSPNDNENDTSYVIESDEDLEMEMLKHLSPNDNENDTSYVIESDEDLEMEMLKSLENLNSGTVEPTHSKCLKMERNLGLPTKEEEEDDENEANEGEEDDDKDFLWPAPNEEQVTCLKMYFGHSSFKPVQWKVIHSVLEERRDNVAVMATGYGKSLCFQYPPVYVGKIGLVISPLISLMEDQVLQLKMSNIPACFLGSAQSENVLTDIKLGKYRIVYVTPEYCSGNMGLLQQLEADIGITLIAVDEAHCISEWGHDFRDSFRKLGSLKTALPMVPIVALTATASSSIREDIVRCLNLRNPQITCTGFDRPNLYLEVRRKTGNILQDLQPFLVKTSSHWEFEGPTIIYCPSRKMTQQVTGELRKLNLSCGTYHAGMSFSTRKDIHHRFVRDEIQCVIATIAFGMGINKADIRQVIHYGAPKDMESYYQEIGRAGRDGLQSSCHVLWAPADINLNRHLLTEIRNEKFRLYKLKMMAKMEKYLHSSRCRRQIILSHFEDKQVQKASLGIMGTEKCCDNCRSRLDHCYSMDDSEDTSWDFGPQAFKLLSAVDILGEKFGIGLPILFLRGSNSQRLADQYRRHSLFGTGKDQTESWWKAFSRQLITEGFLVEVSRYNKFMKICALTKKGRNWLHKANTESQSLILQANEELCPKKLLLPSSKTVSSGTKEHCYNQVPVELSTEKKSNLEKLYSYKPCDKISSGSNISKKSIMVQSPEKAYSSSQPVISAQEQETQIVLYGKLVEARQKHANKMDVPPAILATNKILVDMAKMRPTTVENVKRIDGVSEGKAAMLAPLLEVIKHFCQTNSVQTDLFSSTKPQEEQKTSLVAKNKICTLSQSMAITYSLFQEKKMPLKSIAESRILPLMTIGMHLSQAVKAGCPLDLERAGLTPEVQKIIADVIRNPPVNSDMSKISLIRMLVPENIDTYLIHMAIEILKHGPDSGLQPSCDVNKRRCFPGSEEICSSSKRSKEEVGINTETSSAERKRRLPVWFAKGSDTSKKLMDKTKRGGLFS
Chain of KRAS (P01116 1-188 isoform P01116-2): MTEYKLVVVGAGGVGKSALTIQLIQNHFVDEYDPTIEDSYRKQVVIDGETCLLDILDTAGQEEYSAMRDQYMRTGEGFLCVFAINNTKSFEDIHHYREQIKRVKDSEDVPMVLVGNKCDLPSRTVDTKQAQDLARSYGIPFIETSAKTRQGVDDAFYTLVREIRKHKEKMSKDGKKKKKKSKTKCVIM

The IC50 is the concentration at which inhibition is half-maximal. `[Cl-].[Cl-].[Mg+2]` [MgCl2, Magnesium chloride]: the IC50 in the assay on off-target, at SOS1, against WRN (int.), in the assay on off-target (int.), at BCL6 and at NSD3 was more than 10 µM throughout.

As for `[Cl-].[Cl-].[Co+2]` [CoCl2, Cobalt(II) chloride], the IC50 with off-target, against SOS1, against WRN (int.), in the assay on off-target (int.), at BCL6 and at NSD3 was more than 10 µM in each case.

Take `[Cl][Pd][Cl]` [PdCl2, Palladium(II) chloride]: the 50% inhibitory concentration (IC50) is more than 10 µM in the assay with off-target; less than 1 µM at SOS1; less than 1 µM on WRN (int.); less than 1 µM in the assay on off-target (int.); more than 10 µM at BCL6; more than 10 µM on NSD3.

For the compound `[Cl][Sn][Cl]` [SnCl2, Tin(II) chloride], the IC50 with off-target is more than 10 µM; against SOS1, more than 10 µM; against WRN (int.) it was more than 10 µM; with off-target (int.), more than 10 µM; on BCL6 it was more than 10 µM; on NSD3 it was less than 1 µM.

Turning to `[Cl][Fe]([Cl])[Cl]` [FeCl3, Iron(III) chloride], the IC50 with off-target, on SOS1, against WRN (int.), with off-target (int.), at BCL6 and on NSD3 was more than 10 µM throughout.

As to `[Cl][Cu][Cl]` [CuCl2, Copper(II) chloride], the IC50 with off-target is more than 10 µM; on SOS1, 1 to 10 µM; on WRN (int.), more than 10 µM; in the assay with off-target (int.), more than 10 µM; on BCL6, more than 10 µM; at NSD3, more than 10 µM.

For `CC(=O)[O-].[Ag+]` [Ag (CH 3COO), Silver acetate], the IC50 with off-target was more than 10 µM; on SOS1 it was less than 1 µM; against WRN (int.), more than 10 µM; in the assay with off-target (int.), more than 10 µM; on BCL6, more than 10 µM; on KRAS, less than 1 µM. Besides, the IC50 on NSD3 was in the range of 1 to 10 µM.

`[Cl][Fe][Cl]` [FeCl2, Iron(II) chloride]: the IC50 in the assay on off-target, on SOS1, against WRN (int.), with off-target (int.), on BCL6 and on NSD3 was more than 10 µM throughout.

Regarding `O=[N+]([O-])[O-].O=[N+]([O-])[O-].O=[N+]([O-])[O-].[Al+3]` [Al(NO3)3, Aluminum nitrate], the IC50 was 1 to 10 µM in the assay on off-target; more than 10 µM on SOS1; more than 10 µM on WRN (int.); 1 to 10 µM in the assay with off-target (int.); more than 10 µM at BCL6; more than 10 µM at NSD3.

In the case of `[Cl][Mn][Cl]` [MnCl2, Manganese(II) chloride], the IC50 in the assay with off-target, at SOS1, against WRN (int.), in the assay on off-target (int.), on BCL6 and on NSD3 was more than 10 µM each time.

`[Cl-].[Cl-].[Zn+2]` [ZnCl2, Zinc(II) chloride]: the IC50 with off-target was more than 10 µM; against SOS1, more than 10 µM; on WRN (int.), 1 to 10 µM; with off-target (int.), more than 10 µM; on BCL6, more than 10 µM; on NSD3 it was more than 10 µM.

For the compound `[Cl][Ni][Cl]` [NiCl2, Nickel(II) chloride], the IC50 with off-target, against SOS1, at WRN (int.), in the assay with off-target (int.), on BCL6 and at NSD3 was more than 10 µM in each case.

`[Cl][Au]([Cl])[Cl]` [AuCl3, Gold(III) chloride]: the IC50 with off-target is more than 10 µM; against SOS1, less than 1 µM; at WRN (int.), more than 10 µM; with off-target (int.), more than 10 µM; on BCL6, more than 10 µM; at KRAS, less than 1 µM. Besides, at NSD3, the IC50 was less than 1 µM.
